Data as given in patent publication US20150178471A1, “IMPROVED CLINICAL EFFECT OF PHARMACEUTICAL PRODUCTS USING COMMUNICATION TOOL AND LIFE-STYLE FACTORS” (SCIENTIFICMED SWEDEN AB, priority 2012, published 2015).

Conditions: no combination product
From the text: Development and test of a combination product based on the pharmaceutical Zoloft and a specifically adapted QFM, including life-style improving factors, with a dependent software application • a. Test objectives; improve cardiovascular and diabetes symptoms • b. Main intervention factors; • i. an improved level of physical activity • ii. increased awareness of food intake • iii. an increased well-being based on improved administration of Zoloft • c. Follow-up variables: Weight and HbA1c • d. Period of Time Using the Combination Product: Five Months. • e. Period of time using only the pharmaceutical, i.e. no combination product, prior to the period of using the combination product: Two months • f. Period of time using only the software application, i.e. no combination product, after the period of using the combination product: Two weeks
The used set of questions for the specific QFM, including life-style improving factors, in the combination product based on Zoloft was the following: • Adherence to Zoloft: • The patient was asked to answer a question whether or not he/she had been adherent to Zoloft, and which dose the patient had taken; “I have taken my Zoloft today with the dose 25 mg/50 mg/100 mg/150 mg or 200 mg”. • Physical activity: • The patient was asked initially to set up an individual goal with the purpose of achieving an increased effect. […]

Structure (SMILES): CN[C@H]1CC[C@@H](c2ccc(Cl)c(Cl)c2)c2ccccc21 [Zoloft, Sertralin]
- HbA1c (test period when the patient only was taking Zoloft (two months)): remained stable or slightly increased
- Weight gained (test period when the patient only was taking Zoloft): 1-2%
